This is an account of results in EPA's ToxValDB 9.5 (doi:10.2903/j.efsa.2008.136r).

In brackets after ≈: the same amount, converted by molar mass.

One data set deals with Oncorhynchus mykiss. To be noted: acute; duration: 96 hours; mortality.
The test system of a further data set is Daphnia magna. To be noted: chronic/long-term; duration: 21 days; reproduction.
Another data set deals with Anas platyrhynchos. To be noted: oral, mortality.
In another data set the test system is Pimephales promelas. The settings on record: chronic/long-term; duration: 35 days; growth.
In a further data set the test system is Canidae. The settings on record: oral, Dog Other, organ weight.
The test system of a further data set is Coturnix japonica. To be noted: reproduction developmental.
Another data set concerns Typhlodromus pyri. The settings on record: acute; duration: 7 days; mortality.
A further data set relates to Colinus virginianus. The settings on record: acute, oral, mortality.
A further data set deals with Apis mellifera. To be noted: acute; duration: 48 hours; oral; unspecified; mortality.

In general, NOAEL refers to the highest tested level that showed no adverse finding. Regarding `Clc1ccc(C2(Cn3cncn3)CC(Br)CO2)c(Cl)c1` (stereo not drawn) [Bromuconazole], the LC50 in the data set with Oncorhynchus mykiss is 1.7 µg/mL (≈ 4.51 µM); in the data set with Anas platyrhynchos (short-term, feed), over 684 mg/kg-day; with Colinus virginianus (diet), over 778 mg/kg-day; with Tagia sp. (acute, duration: 14 days, mortality) it was over 1000 mg/kg. In addition, the NOEC is 0.02 mg/L with Daphnia magna; 0.065 mg/L in the data set on Pimephales promelas; 26.5 mg/kg-day in the data set on Coturnix japonica; 1.3 mg/kg-day with Rattus norvegicus (reproduction developmental, reproduction); 37.2 mg/kg in the data set on Tagia sp. (chronic/long-term, duration: 56 days). Also, the LD50 in the data set with Anas platyrhynchos (acute, unspecified) was over 2150 mg/kg-day; in the data set with Rattus norvegicus (acute, F, mortality) it was 328 mg/kg-day; with Colinus virginianus it was over 2150 mg/kg-day; in the data set with Apis mellifera, over 100 µg/piece. In addition, the NOAEL came to 2.5 mg/kg-day in the data set on Canidae (chronic, duration: 1 years); 2.5 mg/kg-day with Canidae (subchronic, duration: 90 days); 0.88 mg/kg-day in the data set with Rattus norvegicus (chronic, duration: 2 years, oral, diet, histopathology: nonneoplastic); 10 mg/kg-day with Rattus norvegicus (developmental, development). The compound also returned an LEL in the data set on Typhlodromus pyri of 260 g/ha.
